The target of this assay is Kv1.3 potassium channel (Homo sapiens, UniProt P22001). The assay is described as follows: Whole-cell patch-clamp assay for inhibitory activity against Kv1.3 (peak current). Type of assay: cell-based. The following applies: HEK293 cells stably expressing Kv1.3, patch-clamp. The source says:
The voltage stimulation protocol for recording whole-cell Kv1.X potassium currents via patch-clamp was as follows. After formation of a whole-cell seal, the cell membrane voltage was clamped at −80 mV, and then stepped to +40 mV for 500 ms. […] The test data were acquired by EPC-10 amplifier (HEKA) and stored in the PatchMaster (HEKA) software. Recording electrodes were drawn from capillary glass tubes using a microelectrode puller. Under an inverted microscope, the recording electrode was brought into contact with the cell surface by manipulating a microelectrode manipulator. Negative-pressure suction was applied to form a GΩ seal. After formation of the […], a rapid capacitance compensation was given. The application of negative pressure was continued to rupture the cell membrane, forming a whole-cell recording mode. Then, a slow capacitance compensation was given, and the membrane capacitance and series resistance were recorded. No current leakage compensation was provided. Once the whole-cell recorded Kv1.X current stabilized, drug administration was started. Each drug concentration was allowed to act for 5 min (or until the current reached a steady state) before the next concentration was tested. Multiple concentrations were tested for each test compound. The cover glass plated with the cells was placed in a recording bath of the inverted microscope. The test compound and the compound-free extracellular fluid were allowed to sequentially flow through the recording bath from low concentrations to high concentrations using a gravity perfusion method, thus acting on the cells, and liquid exchange was performed using a vacuum pump during recording. For each cell, the current detected in the compound-free extracellular liquid was used as its own control group. The test was independently repeated three times using at least three cells per concentration. All electrophysiological experiments were performed at room temperature. […] First, the peak current after the action of each drug concentration and the peak current of the blank control were standardized and then the inhibition rate corresponding to each drug concentration was calculated Subsequently, the mean, standard deviation (SD), and standard error (SE) were calculated for the inhibition rate corresponding to each concentration. Using the above equation, the IC50 value for each compound was calculated, and the dose-dependent effect was subjected to non-linear fitting, where IC50 is the half maximal inhibitory concentration. The IC50 calculation and the curve fitting were performed using the GraphPad Prism software.
Chain of Kv1.3 potassium channel (P22001 whole entry): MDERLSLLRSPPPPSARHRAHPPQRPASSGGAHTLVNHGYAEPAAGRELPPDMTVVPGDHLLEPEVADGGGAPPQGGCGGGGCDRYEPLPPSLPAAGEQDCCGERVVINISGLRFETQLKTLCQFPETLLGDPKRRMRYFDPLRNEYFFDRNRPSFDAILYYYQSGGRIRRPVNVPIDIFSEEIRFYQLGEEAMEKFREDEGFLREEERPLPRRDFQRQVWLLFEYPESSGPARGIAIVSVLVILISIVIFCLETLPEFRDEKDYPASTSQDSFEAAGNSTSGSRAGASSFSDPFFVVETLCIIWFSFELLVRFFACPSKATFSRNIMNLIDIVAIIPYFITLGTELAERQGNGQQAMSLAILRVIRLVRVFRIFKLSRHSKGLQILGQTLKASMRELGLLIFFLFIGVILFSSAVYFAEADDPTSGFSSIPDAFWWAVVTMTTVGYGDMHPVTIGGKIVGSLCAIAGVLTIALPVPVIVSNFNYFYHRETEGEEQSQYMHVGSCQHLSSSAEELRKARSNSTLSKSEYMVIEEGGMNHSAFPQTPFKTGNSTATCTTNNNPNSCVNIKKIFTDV
`COC(=O)N1CCC(c2nnc3n2C[C@H](c2c(O)ccc(Cl)c2Cl)C3)C1` (single isomer, unassigned) [Example 50] returned an IC50 of 10.9 nM.
The value for `O=C1CC(c2nnc3n2C[C@H](c2c(O)ccc(Cl)c2Cl)C3)CN1` (single isomer, unassigned) [Example 53] was 15 nM; that for `O=C1CC(c2nnc3n2C[C@H](c2c(O)ccc(Cl)c2Cl)C3)CCN1` (single isomer, unassigned) [Example 56] was 20.6 nM.
For the compound `O=C1CC(c2nnc3n2C[C@H](c2c(O)ccc(Cl)c2Cl)C3)CCN1` (single isomer, unassigned) [Example 57], 11.4 nM corresponded to half-maximal inhibition (IC50).
The value for `Oc1ccc(Cl)c(Cl)c1[C@@H]1Cc2nnc(C3CCCNC3)n2C1` (single isomer, unassigned) [Example 58] was 12 nM; that for `CC1(c2nnc3n2C[C@H](c2c(O)ccc(Cl)c2Cl)C3)CCOC1` (single isomer, unassigned) [Example 64] was 42.8 nM.
The value for `Oc1ccc(Cl)c(Cl)c1[C@@H]1Cc2nnc(C3CCCOC3)n2C1` (single isomer, unassigned) [Example 69] was 53 nM; that for `Oc1ccc(Cl)c(Cl)c1C1Cc2nnc(C3CCN(C4CCCCC4)CC3)n2C1` (single isomer, unassigned) [Example 79] was 14.8 nM.
With `CC(C)N1CCC(c2cnc3n2CC(c2c(O)ccc(Cl)c2Cl)C3)CC1` (single isomer, unassigned) [Example 94] the figure was 6.09 nM.
The compound `CCn1ncc2c1CC(c1c(O)ccc(Cl)c1Cl)C2` (single isomer, unassigned) [Example 118] yielded an IC50 of 14.6 nM.
With `OCc1nnc2n1C[C@@H](c1c(O)ccc(Cl)c1Cl)C2` [Example 1, (R)-3,4-Dichloro-2-(3-(hydroxymethyl)-6,7-dihydro-5H-pyrrolo[2,1-c][1,2,4]triazol-6-yl)phenol] the figure was 94.3 nM; with `CC(C)(C#N)c1nnc2n1CC(c1c(O)ccc(Cl)c1Cl)C2` (stereo not drawn) [Example 4, 2-(6-(2,3-Dichloro-6-hydroxyphenyl)-6,7-dihydro-5H-pyrrolo[2,1-c][1,2,4]triazol-3-yl)-2-methylpropanenitrile], 45.2 nM; with `Oc1ccc(Cl)c(Cl)c1C1Cc2nnc(C3CCCCC3)n2C1` (stereo not drawn) [Example 5, 3,4-Dichloro-2-(3-cyclohexyl-6,7-dihydro-5H-pyrrolo[2,1-c][1,2,4]triazol-6-yl)phenol], 39 nM.
With `N#Cc1ccc(-c2nnc3n2CC(c2c(O)ccc(Cl)c2Cl)C3)cc1` (stereo not drawn) [Example 6, 4-(6-(2,3-dichloro-6-hydroxyphenyl)-6,7-dihydro-5H-pyrrolo[2,1-c][1,2,4]triazol-3-yl)benzonitrile] the figure was 13.2 nM.
`Oc1ccc(Cl)c(Cl)c1C1Cc2nnc(-c3ccc4[nH]ncc4c3)n2C1` (stereo not drawn) [Example 7, 2-(3-(1H-Indazol-5-yl)-6,7-dihydro-5H-pyrrolo[2,1-c][1,2,4]triazol-6-yl)-3,4-dichlorophenol] displayed a concentration for half-maximal inhibition (IC50) of 12 nM.
The value for `CC(C)c1nnc2n1CC(c1c(O)ccc(Cl)c1Cl)C2` (stereo not drawn) [Example 8, 3,4-Dichloro-2-(3-isopropyl-6,7-dihydro-5H-pyrrolo[2,1-c][1,2,4]triazol-6-yl)phenol] was 20.6 nM.
The value for `N#Cc1cccc(-c2nnc3n2CC(c2c(O)ccc(Cl)c2Cl)C3)c1` (stereo not drawn) [Example 9, 3-(6-(2,3-dichloro-6-hydroxyphenyl)-6,7-dihydro-5H-pyrrolo[2,1-c][1,2,4]triazol-3-yl)benzonitrile] was 17.1 nM; that for `O=C(C1CC1)N1CCC(c2nnc3n2CC(c2c(O)ccc(Cl)c2Cl)C3)CC1` (stereo not drawn) [Example 10, Cyclopropyl(4-(6-(2,3-dichloro-6-hydroxyphenyl)-6,7-dihydro-5H-pyrrolo[2,1-c][1,2,4]triazol-3-yl)piperidin-1-yl)methanone] was 27.7 nM; that for `Oc1ccc(Cl)c(Cl)c1C1Cc2nnc(C3CCN(C4CC4)CC3)n2C1` (stereo not drawn) [Example 11, 3,4-Dichloro-2-(3-(1-cyclopropylpiperidin-4-yl)-6,7-dihydro-5H-pyrrolo[2,1-c][1,2,4]triazol-6-yl)phenol] was 9.24 nM.
The value for `O=C(c1nnc2n1CC(c1c(O)ccc(Cl)c1Cl)C2)N1CCC(O)C1` (stereo not drawn) [Example 12, (6-(2,3-Dichloro-6-hydroxyphenyl)-6,7-dihydro-5H-pyrrolo[2,1-c][1,2,4]triazol-3-yl)(3-hydroxypyrrolidin-1-yl)methanone] was 30.9 nM.
For the compound `O=C(c1nnc2n1CC(c1c(O)ccc(Cl)c1Cl)C2)N1CCNCC1` (stereo not drawn) [Example 13, (6-(2,3-Dichloro-6-hydroxyphenyl)-6,7-dihydro-5H-pyrrolo[2,1-c][1,2,4]triazol-3-yl)(piperazin-1-yl)methanone], the IC50 amounted to 5.09 nM.
The value for `CC(C)N1CCN(C(=O)c2nnc3n2CC(c2c(O)ccc(Cl)c2Cl)C3)CC1` (stereo not drawn) [Example 14, (6-(2,3-Dichloro-6-hydroxyphenyl)-6,7-dihydro-5H-pyrrolo[2,1-c][1,2,4]triazol-3-yl)(4-isopropylpiperazin-1-yl)methanone] was 19.6 nM.
As to `Oc1ccc(Cl)c(Cl)c1C1Cc2nnc(CC(F)(F)F)n2C1` (stereo not drawn) [Example 15, 3,4-Dichloro-2-(3-(2,2,2-trifluoroethyl)-6,7-dihydro-5H-pyrrolo[2,1-c][1,2,4]triazol-6-yl)phenol], the IC50 is 26.8 nM.
On to `CC(C)(C)c1nnc2n1CC(c1c(O)ccc(Cl)c1Cl)C2` (stereo not drawn) [Example 16, 2-(3-(tert-Butyl)-6,7-dihydro-5H-pyrrolo[2,1-c][1,2,4]triazol-6-yl)-3,4-dichlorophenol], for which the IC50 was determined as 74.7 nM.
The compound `CC(C)N1CCC(Cc2nnc3n2CC(c2c(O)ccc(Cl)c2Cl)C3)CC1` (stereo not drawn) [Example 18, 3,4-Dichloro-2-(3-((1-isopropylpiperidin-4-yl)methyl)-6,7-dihydro-5H-pyrrolo[2,1-c][1,2,4]triazol-6-yl)phenol] showed an IC50 of 5.76 nM.
`Oc1ccc(Cl)c(Cl)c1C1Cc2nnc(CN3CCC(O)C3)n2C1` (stereo not drawn) [Example 19, 1-((6-(2,3-Dichloro-6-hydroxyphenyl)-6,7-dihydro-5H-pyrrolo[2,1-c][1,2,4]triazol-3-yl)methyl)pyrrolidin-3-ol] showed an IC50 of 46.3 nM. Compared with the last compound, the IC50 is about 8-fold higher.
`Oc1ccc(Cl)c(Cl)c1C1Cc2nnc(CN3CCOCC3)n2C1` (stereo not drawn) [Example 20, 3,4-Dichloro-2-(3-(morpholinomethyl)-6,7-dihydro-5H-pyrrolo[2,1-c][1,2,4]triazol-6-yl)phenol] came in with an IC50 of 35.3 nM.
The value for `O=C(c1nnc2n1CC(c1c(O)ccc(Cl)c1Cl)C2)N1CCOCC1` (stereo not drawn) [Example 21, (6-(2,3-Dichloro-6-hydroxyphenyl)-6,7-dihydro-5H-pyrrolo[2,1-c][1,2,4]triazol-3-yl)(morpholino)methanone] was 48.6 nM.
With `Oc1ccc(Cl)c(Cl)c1C1Cc2nnc(C3CCN(C4CCOCC4)CC3)n2C1` (stereo not drawn) [Example 22, 3,4-Dichloro-2-(3-(1-(tetrahydro-2H-pyran-4-yl)piperidin-4-yl)-6,7-dihydro-5H-pyrrolo[2,1-c][1,2,4]triazol-6-yl)phenol] the figure was 13.6 nM; with `Oc1ccc(Cl)c(Cl)c1C1Cc2nnc(C(F)F)n2C1` (stereo not drawn) [Example 25, 3,4-Dichloro-2-(3-(difluoromethyl)-6,7-dihydro-5H-pyrrolo[2,1-c][1,2,4]triazol-6-yl)phenol], 11.1 nM.
For `OCCc1nnc2n1C[C@H](c1c(O)ccc(Cl)c1Cl)C2` [Example 32, (S)-3,4-Dichloro-2-(3-(2-hydroxyethyl)-6,7-dihydro-5H-pyrrolo[2,1-c][1,2,4]triazol-6-yl)phenol], 13 nM corresponded to half-maximal inhibition (IC50). The IC50 values of the last two compounds are within 1.5-fold of each other.
For `Oc1ccc(Cl)c(Cl)c1[C@@H]1Cc2nnc(C3CCOCC3)n2C1` [Example 33, (S)-3,4-Dichloro-2-(3-(tetrahydro-2H-pyran-4-yl)-6,7-dihydro-5H-pyrrolo[2,1-c][1,2,4]triazol-6-yl)phenol], half-maximal inhibition (IC50) required 47.8 nM.
The compound `CCc1nnc2n1C[C@H](c1c(O)ccc(Cl)c1Cl)C2` [Example 34, (S)-3,4-Dichloro-2-(3-ethyl-6,7-dihydro-5H-pyrrolo[2,1-c][1,2,4]triazol-6-yl)phenol] gave an IC50 of 9.75 nM.
The compound `Oc1ccc(Cl)c(Cl)c1[C@@H]1Cc2nnc(C3CCNCC3)n2C1` [Example 35, (S)-3,4-Dichloro-2-(3-(piperidin-4-yl)-6,7-dihydro-5H-pyrrolo[2,1-c][1,2,4]triazol-6-yl)phenol] registered an IC50 of 3.15 nM.
`CC(C)N1CCC(c2nnc3n2C[C@H](c2c(O)ccc(Cl)c2Cl)C3)CC1` [Example 36, (S)-3,4-Dichloro-2-(3-(1-isopropylpiperidin-4-yl)-6,7-dihydro-5H-pyrrolo[2,1-c][1,2,4]triazol-6-yl)phenol] returned an IC50 of 6.8 nM.
The compound `CC(=O)N1CCC(c2nnc3n2C[C@H](c2c(O)ccc(Cl)c2Cl)C3)CC1` [Example 37, (S)-1-(4-(6-(2,3-Dichloro-6-hydroxyphenyl)-6,7-dihydro-5H-pyrrolo[2,1-c][1,2,4]triazol-3-yl)piperidin-1-yl)ethan-1-one] yielded an IC50 of 12.7 nM.

Values taken from patent publication US20260224536A1, “ARYL HETEROCYCLIC KV1.3 INHIBITOR, PREPARATION METHOD THEREFOR, AND USE THEREOF” (SHANGHAI SHENSHI WISE TECHNOLOGY CO., LTD., priority 2022, published 2026).
